Data from patent US20020025925A1, “Combination therapy” (priority 1996, published 2002).

Tests used:
[1] = tested on: rat adjuvant-induced arthritis; experiment: Rat adjuvant-induced arthritis model; type: in vivo
Description: Mean of 10 readings was recorded.
Drugs were formulated fresh for each administration.

[2] = Ex vivo bioassay of blood concentration after oral administration; parameters: species or system rat; conditions: 10 mg/kg oral, suspension in PBS/Tween, +/- CyA 0.3 mg/kg, 0.5-24 hrs, n=6
Description: Compound 1 (10 mg/kg)±CyA (0.3 mg/kg) (in PBS/0.1% Tween 80™] was administered to healthy male Lewis rats (as above). Blood samples (0.5 ml into a syringe containing 0.1 ml acid citrate dextroset as anticoagulant) were removed from the ventrcolateral tail vein of the halothane anaestetised rat at t=prebleed, 0.5, 1, 2, 6 and 24 hrs. 3 mls methanol was added to each blood sample, mixed and centrifuged at 3000 r.p.m. for 15 minutes (using Beckman GPKR centrifuge). 2.0 ml of the methanol supernatant was removed and evaporated dry. The pellet was redisolved in 200 μl DMSO (dimethylsulphoxide). An aliquot of the solubilised pellet was assayed against fibroblast collagenase using ^14C collagen as substrate, as follows:
Samples were incubated overnight at 37° C. and undigested substrate removed by centrifugation at 11,600 r.p.m. for 15 mins (using Heraeus Biofuge 15). 200 μl of supernatant was tested by liquid scintillation spectrophotometry.
A calibration curve for the test compound of interest was run alongside the blood samples. The concentration of the test compound in the blood was then calculated from the calibration curve.

Compound	synergy with cyclosporin A ([1]; Compound 2 5 mg/kg ip, bid with cyclosporin A 0.3 mg/kg ip, bid)	effect on arthritis ([1]; Compound 1 10 mg/ml (so in the source), po, bid, days 10-20)	reducing the paw volume (swelling) ([1]; Compound 1 at doses at or below 10 mg/kg, po, bid (data not shown))	blood concentration of Compound 1 with versus without CyA [2]
CNC(=O)[C@H](Cc1ccccc1)NC(=O)[C@H](CC(C)C)[C@H](CSc1cccs1)C(=O)NO [Compound 2, [4-(N-Hydroxyamino)-2R-isobutyl-3S-(thiophenylthiomethyl)succinyl]-L-phenylalanine-N-methylamide]	act in synergy			
CCC[C@H](C(=O)NO)[C@@H](CC(C)C)C(=O)N[C@H](C(=O)NC)C(C)(C)C [Compound 1, 3R-(2,2-Dimethyl-1S-methylcarbamoyl-propylcarbamoyl)-5-methyl-2S-2-propyl-hexanohydroxamic acid]		very little or no effect	ineffective	equivalent
